Reference: US20260325655A1, “DECREASING THE INTRINSICALLY DISORDERED PROTEIN ALPHA-SYNUCLEIN’S LEVELS BY TARGETING ITS STRUCTURED MRNA WITH A RIBONUCLEASE TARGETING CHIMERA” (University of Florida Research Foundation, Incorporated, priority 2023, published 2026)

Legend:
[1] = test system: seven proteins encoded by genes enriched by Syn-CLIP; experiment: Western blot validation of seven proteins encoded by transcripts enriched by Syn-CLIP; assay type: cell-based, human; conditions: 2 μM, 48 h; SH-SY5Y
Procedure: Western blotting. After 48 h, cells were gently washed with ice-cold 1× DPBS, and total protein was extracted with Mammalian Protein Extraction Reagent (M-PER, Thermo Scientific) per the manufacturer's protocol. After quantifying protein concentration by using BCA Protein Assay Kit (Pierce Biotechnology), ~30 μg of total protein for each sample was separated using a 10% SDS-polyacrylamide gel and transferred onto a PVDF membrane. The membrane was fixed with 0.4% paraformaldehyde (pH=7.0) for 30 min at room temperature^9 and then blocked with 5% (w/v) non-fat dry milk in 1× TBST (1× TBS containing 0.1% Tween-20) for 1 h at room temperature. […] After washing 10 min each with 1× TBST three times, immunocomplex signals of each protein were detected by using a SuperSignal West Pico Chemiluminescent Substrate (Pierce Biotechnology) according to the manufacturer's protocol. The memebrane was then stripped by using 1× Stripping Buffer (200 mM glycine, pH 2.2, 4 mM SDS, 1% (v/v) Tween 20) at room temperature for 15 min, followed by blocking with 5% (w/v) non-fat dry milk at room temperature for 1 h. β-actin was used to normalize the levels of all proteins, measured by incubating with a primary antibody for β-actin (1:5000, 3700S from Cell Signaling Technology) at 4° C. overnight. […]

SNCA mRNA = SNCA mRNA in iPSC-induced dopaminergic neurons; assay type: cell-based, human
Procedure: RNA extraction and reverse transcription-quantitative polymerase chain reaction (RT-qPCR). Total RNA was extracted from cells using a Quick-RNA MiniPrep Kit (Zymo Research) per the manufacturer's protocol including DNase treatment. For each sample, 200 ng of RNA was reverse transcribed into cDNA by using a qScript cDNA Synthesis Kit (QuantaBio) according to the manufacturer's instructions. To assess the relative mRNA levels, RT-qPCR was performed in triplicate using SYBR Green PCR mater mix (Applied Biosystems) with a Quant Studio 5 Real-Time PCR system. The relative levels of mRNA were calculated by using the ΔΔCt method as previously described.^8
Dopamine neuron induction. For dopamine neuronal induction,^15,16 the dual-SMAD inhibition method^17 was used for floor plate (FP)-based midbrain dopamine (DA) neuron induction with modifications. Prior to differentiation, Matrigel matrix (BD) was thawed at 4° C. overnight or on ice until it is dissolved. Matrigel coated 6-well plates were prepared according to manufacturer's instructions and incubated at 37° C. for at least 1 h before use. iPSCs were dissociated with Accutase (STEMCELL Technologies) and plated (3.5×10^5-4×10^5 cells per cm^2) into a new Matrigel coated plate and grown in mTeSR medium (STEMCELL Technologies) with StemBeads FGF2 (StemCultures) and ROCK inhibitor Y27632 (5 μM, Tocris). […]

Compound | effect on seven proteins by Western blot [1] | effect on SNCA mRNA levels in dopaminergic neurons (in words) (SNCA mRNA) | decrease of SNCA transcript levels in dopaminergic neurons (SNCA mRNA)
O=C(CSc1nnc(-c2ccncc2)n1-c1ccc(Br)cc1)Nc1ccc2cn[nH]c2c1 [Synucleozid-2.0] | did not affect these seven proteins | no effect | 
CCOC(=O)C1=C(Nc2ccccc2)S/C(=C\c2ccc(OCCOCCOCCOCCNC(=O)CCCOc3ccc(-n4c(SCC(=O)Nc5ccc6cn[nH]c6c5)nnc4-c4ccncc4)cc3)c(O)c2)C1=O [Syn-RiboTAC] | did not affect these seven proteins |  | ~ 50%
